Measurements: patent publication US4722927A, “Pyrimidine amides of oleic or linoleic acid, composition containing them and their use as inhibitors of acyl-CoA cholesterol acyltransferase” (Warner-Lambert Company, priority 1986, dated 1988)

Target: T1, acyl-CoA:cholesterol acyltransferase (ACAT) (Oryctolagus cuniculus, UniProt G1SFD9)
T1 construct: a tissue preparation containing rabbit intestinal microsomes; from tissue; host or cells: rabbit intestinal microsomes
T1 sequence (G1SFD9 1-524): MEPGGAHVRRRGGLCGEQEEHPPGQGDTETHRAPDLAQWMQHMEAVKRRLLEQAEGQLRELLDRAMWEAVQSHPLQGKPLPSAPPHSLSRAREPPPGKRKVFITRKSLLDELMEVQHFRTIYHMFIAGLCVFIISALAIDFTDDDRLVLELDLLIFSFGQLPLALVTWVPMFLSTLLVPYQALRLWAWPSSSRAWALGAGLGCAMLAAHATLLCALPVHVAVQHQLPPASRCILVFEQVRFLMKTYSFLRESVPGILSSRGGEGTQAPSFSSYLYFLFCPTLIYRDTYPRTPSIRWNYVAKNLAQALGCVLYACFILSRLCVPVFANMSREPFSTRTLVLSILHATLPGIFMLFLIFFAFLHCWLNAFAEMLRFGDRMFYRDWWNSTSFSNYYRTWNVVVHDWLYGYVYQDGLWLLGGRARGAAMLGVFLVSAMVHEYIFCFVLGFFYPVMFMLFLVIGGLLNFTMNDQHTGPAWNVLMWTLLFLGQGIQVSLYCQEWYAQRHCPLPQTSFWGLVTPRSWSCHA
Test: In vitro inhibition of ACAT: radio-labeled cholesterol oleate formed from radio-labeled oleic acid in rabbit intestinal microsomes
Assay type: biochemical
Procedure: The ability of representative compounds of the present invention to inhibit ACAT was measured using an in vitro test more fully described in Field, F. J. and Salone, R. G., Biochemica et Biophysica 712: 557-570 (1982). The test assesses the ability of a test compound to inhibit the acylation of cholesterol by oleic acid by measuring the amount of radio-labeled cholesterol oleate formed from radio-labeled oleic acid in a tissue preparation containing rabbit intestinal microsomes.
The data appear in Table 1 where they are expressed as IC50 values; i.e. the concentration of test compound required to inhibit 50% […] of the enzyme.

IC50	Structure (SMILES)
530 nM	CCCCCCCC/C=C\CCCCCCCC(=O)Nc1c(OCC)ncnc1OCC [(Z)-N-(4,6-diethoxy-5-pyrimidinyl)-9-octadecenamide]
200 nM	CCCCCCCC/C=C\CCCCCCCC(=O)Nc1c(OC)ncnc1OC [(Z)-N-(4,6-dimethoxy-5-pyrimidinyl)-9-octadecenamide]
